# Source: patent US10123993B2, “Cyclic ureas as inhibitors of rock” (BRISTOL-MYERS SQUIBB COMPANY, priority 2015, dated 2018)
# Counter-ions that a name gives are not always drawn.
# Target: ROCK2 (Homo sapiens, UniProt O75116)
# Experiment: ROCK2 kinase inhibition assay (Caliper LABCHIP, FITC peptide substrate)
# Format: biochemical
# Conditions: 5 μM ATP, 1.5 μM peptide substrate; value ranges
# How it was run: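 Rho kinase with 5 μM ATP and 1.5 μM FITC-AHA-AKRRRLSSLRA-OH peptide in HEPES pH 7.5, 20 mM MgCl2, 0.015% Brij-35, 4 mM DTT, DMSO <2%. EDTA stop; phospho and non-phospho peptide separated on LabChip. IC50 from dose-response fit.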
# Sequence of ROCK2 (O75116 whole entry, species assumed): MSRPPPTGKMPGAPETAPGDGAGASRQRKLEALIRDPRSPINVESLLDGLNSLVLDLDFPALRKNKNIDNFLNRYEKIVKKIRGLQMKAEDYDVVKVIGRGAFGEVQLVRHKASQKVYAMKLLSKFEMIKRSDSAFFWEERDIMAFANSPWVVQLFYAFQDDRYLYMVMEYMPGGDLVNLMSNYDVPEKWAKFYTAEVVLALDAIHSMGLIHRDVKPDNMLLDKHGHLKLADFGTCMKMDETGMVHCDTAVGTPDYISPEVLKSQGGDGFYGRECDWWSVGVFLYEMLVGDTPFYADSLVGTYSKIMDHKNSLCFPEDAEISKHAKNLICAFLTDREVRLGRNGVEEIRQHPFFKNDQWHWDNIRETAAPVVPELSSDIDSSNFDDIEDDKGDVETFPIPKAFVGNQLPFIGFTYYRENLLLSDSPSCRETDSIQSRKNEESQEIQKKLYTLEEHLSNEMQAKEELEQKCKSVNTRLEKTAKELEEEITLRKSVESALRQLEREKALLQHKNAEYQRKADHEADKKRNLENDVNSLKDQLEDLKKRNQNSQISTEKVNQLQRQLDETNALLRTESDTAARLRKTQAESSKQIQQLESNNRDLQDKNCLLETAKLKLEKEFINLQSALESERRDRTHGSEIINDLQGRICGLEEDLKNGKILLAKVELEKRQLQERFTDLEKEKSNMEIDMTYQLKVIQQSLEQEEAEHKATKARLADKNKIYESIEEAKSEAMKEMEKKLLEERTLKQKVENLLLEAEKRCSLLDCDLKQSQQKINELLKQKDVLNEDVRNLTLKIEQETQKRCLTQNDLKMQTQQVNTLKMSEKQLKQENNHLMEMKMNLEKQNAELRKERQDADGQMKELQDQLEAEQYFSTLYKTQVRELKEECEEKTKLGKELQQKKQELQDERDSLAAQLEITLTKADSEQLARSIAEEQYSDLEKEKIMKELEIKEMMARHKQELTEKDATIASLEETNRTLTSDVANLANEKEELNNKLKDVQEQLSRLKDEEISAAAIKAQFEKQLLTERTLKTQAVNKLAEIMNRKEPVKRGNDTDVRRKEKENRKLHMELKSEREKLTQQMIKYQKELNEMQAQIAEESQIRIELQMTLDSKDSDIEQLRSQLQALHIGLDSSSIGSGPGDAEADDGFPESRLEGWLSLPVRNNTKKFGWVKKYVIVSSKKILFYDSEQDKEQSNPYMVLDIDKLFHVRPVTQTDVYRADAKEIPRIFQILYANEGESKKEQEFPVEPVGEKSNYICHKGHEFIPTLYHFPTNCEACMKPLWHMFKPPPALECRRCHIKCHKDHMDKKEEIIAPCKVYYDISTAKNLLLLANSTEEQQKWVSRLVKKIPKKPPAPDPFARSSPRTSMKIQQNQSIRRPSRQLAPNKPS
row,SMILES,IC50 [nM]
1,"COc1cc(N2C(=O)CN(Cc3ccccc3F)C2=O)ccc1-c1cn[nH]c1 [Example 91, 1-(2-fluorobenzyl)-3-(3-methoxy-4-(1H-pyrazol-4-yl)phenyl)imidazolidine-2,4-dione, TFA]",200 to 2000
2,"COc1cc(N2C(=O)CN(Cc3cc(F)ccc3F)C2=O)ccc1-c1cn[nH]c1 [Example 92, 1-(2,5-difluorobenzyl)-3-(3-methoxy-4-(1H-pyrazol-4-yl)phenyl)imidazolidine-2,4-dione, TFA]",200 to 2000
3,"COc1cc(N2C(=O)CN(C(C)c3ccccc3)C2=O)ccc1-c1cn[nH]c1 (stereo not shown) [Example 96, 3-(3-methoxy-4-(1H-pyrazol-4-yl)phenyl)-1-(1-phenylethyl)imidazolidine-2,4-dione]",200 to 2000
4,"COc1cc(N2C(=O)CN(CCc3ccccc3)C2=O)ccc1-c1cn[nH]c1 [Example 97, 3-(3-methoxy-4-(1H-pyrazol-4-yl)phenyl)-1-phenethylimidazolidine-2,4-dione]",200 to 2000
5,"COc1cc(N2CC(=O)N(Cc3ccccc3)C2=O)ccc1-c1cn[nH]c1 [Example 98, 3-Benzyl-1-(3-methoxy-4-(1H-pyrazol-4-yl)phenyl)imidazolidine-2,4-dione]",20.1 to 200
6,"COc1cc(N2CC(=O)N(Cc3ccccc3F)C2=O)ccc1-c1cn[nH]c1 [Example 99, 3-(2-fluorobenzyl)-1-(3-methoxy-4-(1H-pyrazol-4-yl)phenyl)imidazolidine-2,4-dione]",20.1 to 200
7,"COc1cc(N2CC(=O)N(Cc3cccc(F)c3)C2=O)ccc1-c1cn[nH]c1 [Example 100, 3-(3-fluorobenzyl)-1-(3-methoxy-4-(1H-pyrazol-4-yl)phenyl)imidazolidine-2,4-dione]",20.1 to 200
8,"COc1cc(N2CC(=O)N(Cc3c(F)cccc3F)C2=O)ccc1-c1cn[nH]c1 [Example 102, 3-(2,6-difluoro-benzyl)-1-(3-methoxy-4-(1H-pyrazol-4-yl)phenyl) imidazolidine-2,4-dione]",20.1 to 200
9,"COc1cc(N2CC(=O)N(CCc3ccccc3)C2=O)ccc1-c1cn[nH]c1 [Example 103, 1-(3-methoxy-4-(1H-pyrazol-4-yl)phenyl)-3-phenethylimidazolidine-2,4-dione]",20.1 to 200
10,"COc1cc(N2CC(=O)N(Cc3ccccc3Cl)C2=O)ccc1-c1cn[nH]c1 [Example 104, 3-(2-chlorobenzyl)-1-(3-methoxy-4-(1H-pyrazol-4-yl)phenyl)imidazolidine-2,4-dione]",20.1 to 200
11,"COc1cc(N2CC(=O)N(C(C)c3ccccc3)C2=O)ccc1-c1cn[nH]c1 (stereo not shown) [Example 106, 1-(3-methoxy-4-(1H-pyrazol-4-yl)phenyl)-3-(1-phenylethyl) imidazolidine-2,4-dione]",20.1 to 200
12,"O=C1CN(c2ccc(-c3cn[nH]c3)cc2)C(=O)N1Cc1c(F)cccc1F [Example 108, 1-(4-(1H-pyrazol-4-yl)phenyl)-3-(2,6-difluorobenzyl) imidazolidine-2,4-dione]",200 to 2000
13,"CC(c1ccccc1)N1C(=O)CN(c2ccc(-c3cn[nH]c3)cc2)C1=O (stereo not shown) [Example 109, 1-(4-(1H-pyrazol-4-yl)phenyl)-3-(1-phenylethyl) imidazolidine-2,4-dione]",200 to 2000
14,"O=C1CN(c2ccc(-c3cn[nH]c3)cc2)C(=O)N1Cc1ccccc1 [Example 110, 1-(4-(1H-pyrazol-4-yl)phenyl)-3-benzyl-imidazolidine-2,4-dione]",20.1 to 200
15,"O=C1CN(c2ccc(-c3cn[nH]c3)cc2)C(=O)N1CCc1ccccc1 [Example 113, 1-(4-(1H-pyrazol-4-yl)phenyl)-3-phenethyl-imidazolidine-2,4-dione]",20.1 to 200
16,"O=C1CN(c2ccc(-c3cn[nH]c3)cc2)C(=O)N1Cc1cccc(F)c1 [Example 114, 1-(4-(1H-pyrazol-4-yl)phenyl)-3-(3-fluoro-benzyl)imidazolidine-2,4-dione]",20.1 to 200
17,"O=C1CN(c2ccc(-c3cn[nH]c3)cc2)C(=O)N1Cc1cc(F)ccc1F [Example 115, 1-(4-(1H-pyrazol-4-yl)phenyl)-3-(2,5-difluorobenzyl) imidazolidine-2,4-dione]",20.1 to 200
18,"COc1cccc(CN2CCN(c3ccc(-c4cn[nH]c4)cc3)C2=O)c1F [Example 116, 1-(4-(1H-Pyrazol-4-yl)phenyl)-3-(2-fluoro-3-methoxybenzyl)imidazolidin-2-one]",20.1 to 200
19,"COc1ccc(CN2CCN(c3ccc(-c4cn[nH]c4)cc3)C2=O)cc1F [Example 117, 1-(4-(1H-pyrazol-4-yl)phenyl)-3-(3-fluoro-4-methoxybenzyl)imidazolidin-2-one]",200 to 2000
20,"COc1ccc(F)cc1CN1CCN(c2ccc(-c3cn[nH]c3)cc2)C1=O [Example 119, 1-(4-(1H-pyrazol-4-yl)phenyl)-3-(5-fluoro-2-methoxybenzyl)imidazolidin-2-one]",20.1 to 200
21,"COc1ccc(F)c(CN2CCN(c3ccc(-c4cn[nH]c4)cc3)C2=O)c1 [Example 120, 1-(4-(1H-pyrazol-4-yl)phenyl)-3-(2-fluoro-5-methoxybenzyl)imidazolidin-2-one]",20.1 to 200
22,"COc1cccc(CN2C(=O)N(c3ccc(-c4cn[nH]c4)cc3)C(=O)C2CO)c1 (stereo not shown) [Example 121, 3-(4-(1H-Pyrazol-4-yl)phenyl)-5-(hydroxymethyl)-1-(3-methoxybenzyl)imidazolidine-2,4-dione]",200 to 2000
23,"COc1ccc(CN2C(=O)N(c3ccc(-c4cn[nH]c4)cc3)CC2(C)C)cc1F [Example 139, 1-(4-(1H-pyrazol-4-yl)phenyl)-3-(3-fluoro-4-methoxy-benzyl)-4,4-dimethyl-imidazolidin-2-one]",200 to 2000
24,"CC1(C)CN(c2ccc(-c3cn[nH]c3)cc2)C(=O)N1Cc1cccc(OC(F)F)c1 [Example 142, 1-(4-(1H-pyrazol-4-yl)phenyl)-3-(3-(difluoro-methoxy)-benzyl)-4,4-dimethyl-imidazolidin-2-one]",20.1 to 200

# Other lines, results leading:
row,IC50 [nM],SMILES
1,20.1 to 200,"COc1cccc(CN2CC(=O)N(c3ccc(-c4cn[nH]c4)c(OC)c3)C2=O)c1 [Example 93, 3-(3-methoxy-4-(1H-pyrazol-4-yl)phenyl)-1-(3-methoxybenzyl)imidazolidine-2,4-dione, TFA]"
2,20.1 to 200,"COc1cc(F)cc(CN2CC(=O)N(c3ccc(-c4cn[nH]c4)c(OC)c3)C2=O)c1 [Example 94, 1-(3-fluoro-5-methoxybenzyl)-3-(3-methoxy-4-(1H-pyrazol-4-yl)phenyl)imidazolidine-2,4-dione, TFA]"
3,20.1 to 200,"CC(c1ccccc1)N1CC(=O)N(c2ccc(-c3cn[nH]c3)cc2)C1=O (stereo not shown) [Example 95, 3-(4-(1H-pyrazol-4-yl)phenyl)-1-(1-phenylethyl)imidazolidine-2,4-dione]"
4,2.1 to 20,"COc1cc(F)cc(CN2C(=O)CN(c3ccc(-c4cn[nH]c4)c(OC)c3)C2=O)c1 [Example 101, 3-(3-fluoro-5-methoxybenzyl)-1-(3-methoxy-4-(1H-pyrazol-4-yl)phenyl) imidazolidine-2,4-dione]"
5,2.1 to 20,"COc1cccc(CN2C(=O)CN(c3ccc(-c4cn[nH]c4)c(OC)c3)C2=O)c1 [Example 105, 1-(3-methoxy-4-(1H-pyrazol-4-yl)phenyl)-3-(3-methoxy-benzyl)imidazolidine-2,4-dione]"
6,2.1 to 20,"COc1cc(F)cc(CN2C(=O)CN(c3ccc(-c4cn[nH]c4)cc3)C2=O)c1 [Example 107, 1-(4-(1H-pyrazol-4-yl)phenyl)-3-(3-fluoro-5-methoxy-benzyl)imidazolidine-2,4-dione]"
7,2.1 to 20,"O=C1CN(c2ccc(-c3cn[nH]c3)cc2)C(=O)N1Cc1ccccc1Cl [Example 111, 1-(4-(1H-pyrazol-4-yl)phenyl)-3-(2-chlorobenzyl) imidazolidine-2,4-dione]"
8,< 2,"COc1cccc(CN2C(=O)CN(c3ccc(-c4cn[nH]c4)cc3)C2=O)c1 [Example 112, 1-(4-(1H-pyrazol-4-yl)phenyl)-3-(3-methoxybenzyl) imidazolidine-2,4-dione]"
9,< 2,"COc1cc(F)cc(CN2CCN(c3ccc(-c4cn[nH]c4)cc3)C2=O)c1 [Example 118, 1-(4-(1H-pyrazol-4-yl)phenyl)-3-(3-fluoro-5-methoxybenzyl)imidazolidin-2-one]"
10,< 2,"COc1cccc([C@@H](C)N2CCN(c3ccc(-c4cn[nH]c4)cc3)C2=O)c1 [Example 122, (R)-1-(4-(1H-Pyrazol-4-yl)phenyl)-3-(1-(3-methoxyphenyl)ethyl)imidazolidin-2-one]"
11,< 2,"COc1cccc(CN2C(=O)N(c3ccc(-c4cn[nH]c4)cc3)C[C@@H]2CO)c1 [Example 125, (R)-1-(4-(1H-Pyrazol-4-yl)phenyl)-4-(hydroxymethyl)-3-(3-methoxybenzyl)imidazolidin-2-one]"
12,< 2,"COc1cc(F)cc(CN2C(=O)N(c3ccc(-c4cn[nH]c4)cc3)C[C@H]2CO)c1 [Example 129, (S)-1-(4-(1H-pyrazol-4-yl)phenyl)-3-(3-fluoro-5-methoxy-benzyl)-4-(hydroxy-methyl)-imidazolidin-2-one]"
13,< 2,"COc1cccc(CN2C(=O)N(c3ccc(-c4cn[nH]c4)cc3)CC2(C)C)c1 [Example 137, 1-(4-(1H-Pyrazol-4-yl)phenyl)-3-(3-methoxybenzyl)-4,4-dimethylimidazolidin-2-one]"
14,2.1 to 20,"COc1cc(F)cc(CN2C(=O)N(c3ccc(-c4cn[nH]c4)cc3)CC2(C)C)c1 [Example 138, 1-(4-(1H-pyrazol-4-yl)phenyl)-3-(3-fluoro-5-methoxy-benzyl)-4,4-dimethyl-imidazolidin-2-one]"
15,2.1 to 20,"COc1cc(CN2C(=O)N(c3ccc(-c4cn[nH]c4)cc3)CC2(C)C)ccc1F [Example 140, 1-(4-(1H-pyrazol-4-yl)phenyl)-3-(4-fluoro-3-methoxy-benzyl)-4,4-dimethyl-imidazolidin-2-one]"
16,2.1 to 20,"CC1(C)CN(c2ccc(-c3cn[nH]c3)cc2)C(=O)N1Cc1cccc(F)c1 [Example 141, 1-(4-(1H-pyrazol-4-yl)phenyl)-3-(3-fluoro-benzyl)-4,4-dimethyl-imidazolidin-2-one]"
